Assay results published in ChEMBL document CHEMBL1201862, “PubChem BioAssay data set” (2004).
Where a name gives a salt, the structure may show the parent alone. The source made the active and inactive calls. Rule as the data show it, for most assays here: actives have a measured EC50 and inactives only a lower limit. Non-standard residues stand in square brackets, D forms with d. Residues, ends and D or L forms follow the SMILES beside them. ξ: configuration not given here. Pen = CC(C)(S)[C@H](N)C(=O)O; ξL = CC(C)CC(N)C(=O)O

How the values were obtained:
[1] = test system: H4; test: Luminescence Cell-Based Dose Response HTS to Identify Activators of 5'UTR Stem-Loop Driven Prion Protein mRNA Translation in H4 Neuroglioblastoma Cells. [Related pubchem assays: 1829 (Project Summary), 1814 (Primary HTS)]; assay type: functional; settings: Homo sapiens
[2] = Luminescence Cell-Based Dose Response HTS to Identify Activators of Luciferase Translation or Activity in H4 […] Cells. [Related pubchem assays: 1829 (Project Summary), 1814 (Primary HTS)]; assay type: functional
[3] = Luminescence Cell-Based Dose Confirmation HTS to Identify Activators of 5'UTR Stem-Loop Driven Alpha-Synuclein mRNA Translation in H4 Neuroglioblastoma Cells. [Related pubchem assays: 1829 (Project Summary), 1814 (Primary HTS)]; assay type: functional
[4] = target: T1, Heat shock factor protein 1 (Mus musculus, UniProt P38532); test: enhancement of HSF1-driven luciferase signal – cell-based, NIH3T3, luminescence, dose retest, confirmation (AID 435004); assay type: functional;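 also: stress induced by proteasome inhibitor MG132 added 30 min after compound; luciferase reporter driven by HSF1 response element in NIH3T3 cells; actives raise luminescence as potentiators of the MG132 stress response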
T1 sequence (P38532 whole entry): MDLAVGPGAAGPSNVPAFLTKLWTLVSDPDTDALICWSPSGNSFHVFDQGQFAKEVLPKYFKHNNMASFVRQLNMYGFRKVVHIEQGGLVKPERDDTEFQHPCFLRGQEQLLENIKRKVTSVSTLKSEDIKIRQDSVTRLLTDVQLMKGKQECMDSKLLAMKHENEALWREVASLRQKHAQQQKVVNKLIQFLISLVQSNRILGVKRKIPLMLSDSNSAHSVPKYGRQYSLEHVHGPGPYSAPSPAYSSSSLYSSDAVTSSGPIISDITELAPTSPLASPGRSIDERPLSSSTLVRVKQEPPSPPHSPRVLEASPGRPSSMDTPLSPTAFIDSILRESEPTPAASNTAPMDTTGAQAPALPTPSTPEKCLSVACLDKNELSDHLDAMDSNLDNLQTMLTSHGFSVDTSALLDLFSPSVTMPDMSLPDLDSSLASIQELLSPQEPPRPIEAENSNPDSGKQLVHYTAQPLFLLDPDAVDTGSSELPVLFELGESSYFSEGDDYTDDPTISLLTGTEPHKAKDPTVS

[5] = test system: P388/ADR; test: cells; assay type: functional; settings: Mus musculus
[6] = test system: P388; test: cells; assay type: functional; settings: Mus musculus
[7] = test system: SN12K1; test: cells; assay type: functional; settings: Homo sapiens
[8] = Luminescence Cell-Based Dose Confirmation HTS to Identify Inhibitors of Platelet Dense Granule Release. [Related pubchem assays: 1663 (Primary HTS), 1678 (Summary of Project)]; assay type: functional
[9] = target: Luciferin 4-monooxygenase (Photinus pyralis, UniProt P08659); test: inhibition of purified Photinus pyralis luciferase – biochemical, luminescence, dose response (AID 1891)
[10] = target: T1, Heat shock factor protein 1; test: decrease of HSF1-responsive luciferase luminescence – cell-based, NIH3T3, dose retest, confirmation (AID 2382); assay type: functional;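 also: NIH3T3 fibroblasts with HSF1-driven luciferase reporter stressed by proteasome inhibitor MG132; luminescence from HSF1-driven luciferase expression after 8 hours of MG132 stress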
[11] = target: T2, Protein skinhead-1 (Caenorhabditis elegans, UniProt P34707); assay type: functional
T2 sequence (P34707 whole entry): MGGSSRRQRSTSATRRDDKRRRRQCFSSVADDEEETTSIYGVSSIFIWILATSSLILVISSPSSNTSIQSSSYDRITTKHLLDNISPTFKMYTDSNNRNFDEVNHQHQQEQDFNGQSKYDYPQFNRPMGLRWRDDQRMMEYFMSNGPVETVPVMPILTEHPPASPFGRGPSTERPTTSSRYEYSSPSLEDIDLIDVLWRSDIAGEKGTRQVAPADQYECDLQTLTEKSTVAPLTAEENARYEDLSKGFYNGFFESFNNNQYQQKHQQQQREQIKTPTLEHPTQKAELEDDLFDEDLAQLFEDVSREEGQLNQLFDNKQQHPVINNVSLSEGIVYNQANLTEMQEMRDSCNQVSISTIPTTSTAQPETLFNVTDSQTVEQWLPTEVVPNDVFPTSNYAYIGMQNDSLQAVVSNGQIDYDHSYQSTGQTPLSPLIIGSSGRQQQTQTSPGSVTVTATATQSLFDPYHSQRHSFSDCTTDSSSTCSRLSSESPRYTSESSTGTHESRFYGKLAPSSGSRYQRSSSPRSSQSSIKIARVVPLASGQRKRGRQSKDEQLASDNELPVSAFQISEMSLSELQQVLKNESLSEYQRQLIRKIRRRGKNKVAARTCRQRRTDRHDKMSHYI

[12] = test system: INS1; test: INS-1E survival protection against cytokine death – cell-based, luminescence, retest, dose response (AID 449756); assay type: functional; settings: Rattus norvegicus;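 also: cell death triggered by IL-1 beta plus TNF-alpha plus IFN-gamma mixture; protective hits raise ATP signal compared with cytokine alone wells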

Luciferin 4-monooxygenase, sequence (P08659 whole entry): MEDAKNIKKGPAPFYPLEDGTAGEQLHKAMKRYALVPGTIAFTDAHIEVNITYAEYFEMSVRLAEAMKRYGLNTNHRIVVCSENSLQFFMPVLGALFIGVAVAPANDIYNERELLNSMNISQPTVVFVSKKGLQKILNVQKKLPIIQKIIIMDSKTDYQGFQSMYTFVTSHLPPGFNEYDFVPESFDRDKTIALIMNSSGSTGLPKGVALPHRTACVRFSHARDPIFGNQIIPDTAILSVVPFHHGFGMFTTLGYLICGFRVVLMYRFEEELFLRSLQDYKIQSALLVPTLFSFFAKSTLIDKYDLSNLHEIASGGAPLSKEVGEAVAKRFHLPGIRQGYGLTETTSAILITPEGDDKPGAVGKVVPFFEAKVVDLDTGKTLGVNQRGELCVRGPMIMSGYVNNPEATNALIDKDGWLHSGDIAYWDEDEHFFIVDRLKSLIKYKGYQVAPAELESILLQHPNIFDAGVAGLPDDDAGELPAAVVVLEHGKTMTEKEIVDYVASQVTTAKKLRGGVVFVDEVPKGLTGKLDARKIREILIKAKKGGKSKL

## O=C(Cn1ncc(N2CCOCC2)c(Br)c1=O)c1ccc(Cl)cc1
[1]
  EC50: 17 µM (active)
[2]
  EC50: 7.93 µM (active)
[3]
  EC50: > 120 µM (not active)

## COc1cccc(NC(=O)CSc2nc3c4ccccc4nc-3c(O)n2C)c1
[4]
  EC50: > 260 µM (inactive)

## CCOc1cccc2c1OC(c1cc(OC)c(OC)c(OC)c1)N1N=C(c3ccc(C)o3)CC21 (stereo not given)
[1]
  EC50: 8.82 µM (active)
[2]
  EC50: 28.3 µM (active)
[3]
  EC50: 32 µM (active)

## CSc1nc(NC(C)(C)C)nc(Oc2ccc(O)nn2)n1
[4]
  EC50: > 260 µM (inactive)

## C[S+](C)CC1OC(n2cnc3c(N)ncnc32)C(O)C1O (stereo not given)
[5]
  GI50: > 22.5 µM (inactive)
[6]
  GI50: > 225 µM (inactive)
[7]
  GI50: > 225 µM (inactive)

## O=C(Nc1ccc(N2CCOCC2)cc1)c1nc2ccccc2s1
[8]
  EC50: 5.93 µM (active)
[9]
  EC50: 16.4 µM (active)

## CCCN1CCC(=O)N([C@H](CSc2ccc(C)cc2)c2ccccc2)CC1
[1]
  EC50: 7.04 µM (active)
[2]
  EC50: 5.58 µM (active)
[3]
  EC50: 8.36 µM (active)

## Cc1ccccc1N(C(=O)c1csnn1)C(C(=O)NC(C)(C)C)c1ccncc1 (stereo not given)
[4]
  EC50: > 260 µM (inactive)

## CCOC(=O)CNC(=O)NC12CC3CC(CC(C3)C1)C2
[5]
  GI50: 225 µM (inactive)
[6]
  GI50: 63.8 µM (inactive)
[7]
  GI50: 141 µM (inactive)

## CN1N=C(C(=O)N2CCc3c([nH]c4ccccc34)C2c2ccccc2Cl)CCC1=O (stereo not given)
[1]
  EC50: 9.56 µM (active)
[2]
  EC50: 10.8 µM (active)
[3]
  EC50: 13.2 µM (active)

## CCOC(=O)c1cc(-c2ccccc2)nn1Cc1cc(CC)no1
[1]
  EC50: 89.1 µM (active)
[2]
  EC50: 7.3 µM (active)
[3]
  EC50: 12.4 µM (active)

## C=C1C[C@@H](O)C[C@@]2(C)C[C@@H]3OC(=O)C(=C)[C@@H]3C[C@H]12
[5]
  GI50: 2.2 µM (inactive)
[6]
  GI50: 2.46 µM (inactive)
[7]
  GI50: 12.3 µM (inactive)

## Cc1ccccc1C(=O)NCCOc1ccccc1Cl
[4]
  EC50: 25.5 µM (active)

## Cc1cc(O)c2c(c1O)C(=O)C13C(=C(O)C4C(O)C1C1C(O)C3C(O)=C3C(=O)c5c(O)cc(C)c(O)c5C(=O)C341)C2=O (stereo not given)
[5]
  GI50: 0.0461 µM (active)
[6]
  GI50: < 0.01 µM (active)
[7]
  GI50: 0.0506 µM (active)

## c1ccc(C(c2ccccc2)N2CCN(Cc3nnnn3C3CCCC3)CC2)cc1
[8]
  EC50: > 112 µM (not active)
[9]
  EC50: > 112 µM (not active)

## CC1=Nc2cc(C(=O)NCC3CCCO3)ccc2Sc2ccc(Br)cc21 (stereo not given)
[1]
  EC50: 17.8 µM (active)
[10]
  EC50: > 195 µM (not active)
[2]
  EC50: > 120 µM (not active)
[3]
  EC50: > 120 µM (not active)

## NC(=O)c1ccc(NC(=O)CC23CC4CC(CC(Br)(C4)C2)C3)cc1
[4]
  EC50: > 260 µM (inactive)

## CCOC(=O)c1c(NC(=O)CSc2nc3ccccc3o2)sc(C)c1C
[4]
  EC50: > 260 µM (inactive)

## COc1ccccc1CNC(=O)c1ccc(NS(=O)(=O)c2cccs2)cc1
[4]
  EC50: > 260 µM (inactive)

## Cc1ccccc1C(=O)O/N=C1\CCS(=O)(=O)c2sccc21
[4]
  EC50: 0.943 µM (active)

## CN1CCN(CC(=O)N(C)c2nc(-c3ccccc3)cs2)CC1
[2]
  EC50: 1.22 µM (active)
[3]
  EC50: 1.12 µM (active)

## CCn1c(=O)cc(N2CCN(Cc3ccccc3)CC2)[nH]c1=O
[8]
  EC50: > 112 µM (not active)
[9]
  EC50: > 112 µM (not active)

## CCOC(=O)/C=C/c1c[nH]c(C(=O)OCC)c1
[5]
  GI50: > 100 µM (inactive)
[6]
  GI50: > 100 µM (inactive)
[7]
  GI50: > 100 µM (inactive)

## O=[N+]([O-])c1ccc(N2CCCC2)c2ccncc12
[11]
  IC50: > 100 µM (inactive)
[10]
  EC50: 31.2 µM (active)

## NCCCC(N)(C(=O)O)C(F)F (stereo not given) [EFLORNITHINE]
[5]
  GI50: > 1840 µM (inactive)
[6]
  GI50: 275 µM (inactive)
[7]
  GI50: 1400 µM (inactive)

## COc1ccc(N2CCN(CC(=O)c3ccc(O)cc3O)CC2)cc1
[8]
  EC50: > 112 µM (not active)
[9]
  EC50: > 112 µM (not active)

## CCc1ccc(S(=O)(=O)NCCc2cn3ccsc3n2)s1
[8]
  EC50: > 112 µM (not active)
[9]
  EC50: > 112 µM (not active)

## O=C1CN2Cc3c(ccc(Cl)c3Cl)N=C2N1 [ANAGRELIDE HYDROCHLORIDE]
[8]
  EC50: 0.722 µM (active)
[9]
  EC50: > 112 µM (not active)

## COc1cc(C)c(S(=O)(=O)N2CCN=C2c2ccccc2)cc1C
[4]
  EC50: > 260 µM (inactive)

## COc1cc2cc(CN(CCO)S(=O)(=O)c3ccccc3Cl)c(O)nc2cc1OC
[8]
  EC50: > 112 µM (not active)
[9]
  EC50: > 112 µM (not active)

## c1ccc2c(c1)SCCc1cn[nH]c1-2
[5]
  GI50: > 100 µM (inactive)
[6]
  GI50: > 100 µM (inactive)
[7]
  GI50: > 100 µM (inactive)

## COc1ccc(NC(=O)c2cc(S(=O)(=O)N3CCc4ccccc43)cn2C)cc1OC
[8]
  EC50: > 112 µM (not active)
[9]
  EC50: > 112 µM (not active)

## Oc1nc2cc3c(cc2cc1CN(CCc1ccccc1)Cc1nnnn1C1CCCC1)OCCO3
[8]
  EC50: > 112 µM (not active)
[9]
  EC50: > 112 µM (not active)

## CCCCCCSc1nc(N)nc2nc[nH]c12
[5]
  GI50: 12.7 µM (inactive)
[6]
  GI50: > 40.8 µM (inactive)
[7]
  GI50: 38.7 µM (inactive)

## CSCC[C@H](NC(=O)C(CC(C)C)NC(=O)[C@H](Cc1c[nH]cn1)NC(=O)CNC(=O)[C@@H](NC(=O)[C@@H](C)NC(=O)[C@H](Cc1c[nH]c2ccccc12)NC(=O)[C@H](CCC(N)=O)NC(=O)[C@@H](N)CC(N)=O)C(C)(C)SC)C(N)=O (stereo not given in full) (H-NQW[dA][Pen](Me)GH[ξL]M-NH2)
[5]
  GI50: > 100 µM (inactive)
[6]
  GI50: > 100 µM (inactive)
[7]
  GI50: > 100 µM (inactive)

## CN(C)CCNC(=O)c1cc(Cl)cc2cc3ccccc3nc12
[5]
  GI50: 0.0622 µM (active)
[6]
  GI50: 0.128 µM (active)
[7]
  GI50: 0.378 µM (active)

## CCOC(=O)C(C)/C(C)=N/NC(=O)c1cc2ccccc2cc1O (stereo not given)
[12]
  AC50: 14.8 µM (active)

## CC(C)(C)c1cccc(/C=N/O)c1O
[4]
  EC50: > 260 µM (inactive)

## Cc1ccc(N2C(=O)CCC2(C#N)c2ccccc2)cc1 (stereo not given)
[4]
  EC50: > 260 µM (inactive)

## CN(C)CCOc1cc2c(c3ccccc13)-c1ccccc1C2=O
[5]
  GI50: 0.36 µM (active)
[6]
  GI50: 0.0435 µM (active)
[7]
  GI50: 0.589 µM (active)

## CC(=O)OCC1OC(Nc2ncc(-c3ccc(C)cc3)s2)C(OC(C)=O)C(OC(C)=O)C1OC(C)=O (stereo not given)
[5]
  GI50: 25.2 µM (inactive)
[6]
  GI50: 28.4 µM (inactive)
[7]
  GI50: 46.8 µM (inactive)

## O=C(CSc1nc2nccnc2c(=O)n1Cc1cccs1)Nc1ccccc1F
[4]
  EC50: > 260 µM (inactive)

## CN1/C(=C\C(=O)C[n+]2cccc(Br)c2)C(C)(C)c2ccccc21
[12]
  AC50: 5.62 µM (active)

## O=S1(=O)C=C(Oc2ccc3ccccc3c2)c2ccccc21
[11]
  IC50: > 100 µM (inactive)

## COC(=O)C1C(O)C(C)C(O)C(C)(O)/C=C\C=C(C)C(=O)Nc2c(C)c(OC(C)=O)c3c(c2O)C(=O)C(C)=C2OCOC(=C23)C(C)=CC(C)(O)C(O)C(C)C1OC(C)=O (stereo not given)
[5]
  GI50: 41.5 µM (inactive)
[6]
  GI50: 30.3 µM (inactive)
[7]
  GI50: 37 µM (inactive)
